Measurements reported in patent US10058611B2, “Use of α-(8-quinolinyloxy) mono-substituted phthalocyanine zinc for treatment of psoriasis” (BEIJING GUIQIANJIN MEDICAL SCIENCE AND TECHNOLOGY CO., LTD., priority 2014, dated 2018).

Key:
[1] = tested on: mouse vaginal epithelial cells; assay: Diethylstilbestrol-induced excessive proliferation of mouse vaginal epithelial cells (PDT, mitotic index); type: in vivo, ICR mice; settings: for Mitotic Index: x ± s, n = 10
Text: Estrogen (for example diethylstilbestrol) may induce the active proliferation of mouse vaginal epithelial cells, thereby accelerating the turnover of epithelial cells; and colchicine may make the cell cycle stagnated in the mitotic metaphase and then the inhibition effects of a test substance on mitosis and excessive cell proliferation may be observed. This model may simulate the characteristic of overly rapid proliferation of epithelial cells in psoriasis patients, is simple and easy to obtain, and is one of the most common animal models in the assessment of drug efficacy for psoriasis.
Sixty ICR mice were taken and randomly divided into 6 groups according to weights: blank control group, model control group, irradiation without administration group and PDT groups 1, 2 and 3. Except for the blank control group, all of other groups were intraperitoneally injected with diethylstilbestrol (0.2 mg/mouse), once-daily for 3 days. […] After protection from light for 6 hours, the PDT groups 1, 2 and 3 and the irradiation without administration group were subjected to laser irradiation by using a semiconductor photodynamic therapeutic instrument; the irradiation conditions were 100 mW×540 s, 300 mW×60 s, 100 mW×60 s and 300 mW×540 s, respectively; the spot diameter was 3 cm; and the abdomen of mice was irradiated. The blank control group and the model control group were not subjected to irradiation. After one week post-irradiation, mice of each group were intraperitoneally injected with colchicine at a dose of 2 mg/kg, making the cell mitosis stagnated in the mitotic metaphase. After 4 hours post-injection of colchicine, animals were sacrificed by anesthesia. Mouse vagina was taken, fixed in 10% formaldehyde solution, conventionally dehydrated, embedded in paraffin, sliced and stained with HE; 300 basal cells were counted under a microscope and the number of mitotic cells was calculated and the mitotic index was calculated (number of mitotic cells per 100 basal cells).

[2] = tested on: HaCaT cells; assay: Proliferation inhibition of HaCaT cells after 670 nm irradiation (MTT); type: cell-based, human
Description: HaCaT cell line, a cell line of normally mutated and immortalized human keratinocyte, is one of the most wildly used cell models for the currently study of psoriasis. As compared with primary cultured keratinocytes, HaCaT cells have similar biological properties, but its operation is simpler.
HaCaT cells were routinely cultured in RPMI-1640 medium containing 10% fetal bovine serum at 37° C. in a 5% CO2 incubator. The cells were harvested in logarithmic growth phase, digested with 0.25% trypsin (containing EDTA), adjusted to a cell density of 2×10^5 cells/mL and seeded in a 96-well plate, 100 μL per each well; after incubation for 24 hours, α-(8-quinolinyloxy) mono-substituted phthalocyanine zinc was added at concentrations of 0.001 μg/mL, 0.01 μg/mL, 0.1 μg/mL, 1 μg/mL and 10 μg/mL respectively and three complex wells were set for each concentration. […] The culture medium was discarded; 200 μL of MTT solution (0.5 mg/mL) was added to each well; the cells were incubated for additional 4 hours; then, 200 μL of dimethyl sulfoxide was added to each well and the absorbance value of each well was measured by a microplate reader at 545 nm (reference wavelength: 450 nm). 3 times of parallel measurements were conducted and the mean value was calculated. The inhibition rate of proliferation was calculated and IC50 was calculated by Bliss method.

[3] = tested on: propranolol-induced psoriasis-like lesions; assay: Propranolol-induced psoriasis-like lesions on guinea pig ears (PDT, histology); type: in vivo
Text: Propranolol is a β-adrenergic receptor blocking agent, and it may be applied to guinea pig skin to block the β-adrenergic receptor in keratinocytes and thereby reducing the intracellular cAMP level, leading to histopathological changes similar to psoriasis such as hyperkeratosis, parakeratosis and acanthosis of animal epidermis, which are the same as human psoriatic lesions at the molecular level. Application of propranolol to ear skin of guinea pig to replicate a psoriasis-like skin model is often used for observing the therapeutic effect of a drug on psoriasis.
Preparation method for 5% propranolol liniment: dissolving 5 g powder of propranolol API in 50 mL of 50% ethanol, adding 5 g of polyoxyethylene pyrrolidone 30, 2.5 mL of azone, 2.5 mL of propylene glycol, and finally adding 50% ethanol to 100 mL. 5% propranolol was prepared fresh for use. Forty-two guinea pigs were randomly divided into a blank control group and a model-establishing group according to weights, 6 guinea pigs in the blank control group and 36 guinea pigs in the model-establishing group. 5% propranolol was applied uniformly on the back of both ears of guinea pigs in the model-establishing group at a dose of 0.1 mL/ear, once in the morning and once in the afternoon, and the administration lasted for continuous 4 weeks. After the model was established, the guinea pigs in the model-establishing group were randomly divided into 6 groups according to weights again, 6 guinea pigs in each group. The 6 groups were model control group, irradiation without administration group, administration without irradiation group, injection administration group and topical administration groups 1 and 2, respectively. The administration without irradiation group and the injection administration group were intravenously injected with α-(8-quinolinyloxy) mono-substituted phthalocyanine zinc solution at a dose of 0.45 mg/kg and the topical administration groups 1 and 2 were respectively applied with 5% and 1% α-(8-quinolinyloxy) mono-substituted phthalocyanine zinc liniments at a dose of 0.1 mL/ear. […] were not administrated. After protection from light for 24 hours, the irradiation without administration group, the injection administration group and the topical administration groups 1 and 2 were subjected to laser irradiation by using a semiconductor photodynamic therapeutic instrument with the following irradiation conditions: output power, 1,000 mW; spot diameter, 6 cm; irradiation time, 399 s; irradiation dose, 14 J/cm^2. After irradiation, animals were protected from light for 48 hours, and then recovered for 3 days. A photodynamic therapy (administration, irradiation, protection from light and recovery) was repeated once according to the abovementioned steps. […]

For “α-(8-quinolinyloxy) mono-substituted phthalocyanine zinc”, the “Mitotic Index” value ([1]; PDT group 1: dose 2 mg/kg i.p., irradiation 540 s, 100 mW) was 6.4 ± 2.2^##^ %, the “Mitotic Index” value ([1]; PDT group 2: dose 1 mg/kg i.p., irradiation 60 s, 300 mW) was 7.2 ± 2.6 % and the “Mitotic Index” value ([1]; PDT group 3: dose 0.5 mg/kg i.p., irradiation 60 s, 100 mW) was 10.3 ± 4.3 %. The “Mitotic index compared with the model control group (result in words)” value ([1]; PDT groups 1, 2 and 3) was “significantly reduced”, the “Proliferation of HaCaT cells (result in words)” value ([2]; 0.001-10 μg/mL, 670 nm irradiation) was “inhibit the proliferation of HaCaT cells in a concentration-dependent manner” and the “IC50, inhibition of proliferation of HaCaT cells” value ([2]; 4 h incubation, 670 nm irradiation 1500 mW, spot 8 cm, 180 s, MTT 48 h after irradiation, Bliss method) was 0.197 ± 0.022 µg/mL. For the same substance, the “Psoriasis-like lesions of the guinea pig ear (result in words)” value (“Psoriasis-like lesions” for short) ([3]; administration without irradiation group: 0.45 mg/kg i.v., no laser) was “improved to some extent but not obviously”, the “Psoriasis-like lesions” value ([3]; injection administration group: 0.45 mg/kg i.v., laser 1,000 mW, 399 s, 14 J/cm^2, two photodynamic therapies) was “improved significantly” and the “Psoriasis-like lesions” value ([3]; topical administration group 1: 5% liniment 0.1 mL/ear, laser 1,000 mW, 399 s, 14 J/cm^2, two photodynamic therapies) was “improved significantly”. The “Psoriasis-like lesions” value ([3]; topical administration group 2: 1% liniment 0.1 mL/ear, laser 1,000 mW, 399 s, 14 J/cm^2, two photodynamic therapies) was “improved significantly”.
